US8865762B2, “Method for the treatment of bone diseases comprising colforsin daropate” (Korea Research Institute of Bioscience and Biotechnology, priority 2009, dated 2014)
Entries after “also recorded” stand apart in the source; their conditions may differ.

Assays:
[1] = system: murine monocytic cell line, RAW264.7; test: Cytotoxicity test of monocytes (CCK-8 kit); format: cell-based; conditions: RAW264.7, 0, 10, 20 and 30 μM, after 1, 2 and 4 days, FIG. 1, monohydrochloride
Procedure: The murine monocytic cell line, RAW264.7 (ATTC TIB-71) was cultured in a DMEM medium supplemented with 10% FBS, and the medium was replaced every other day. The cell culture reagents were purchased from Hyclone. When RAW264.7 cells reached 70% confluence, the collected cells were aliquotted into a 96-well plate at a density of 1×10^3/well, and cultured for 24 hours. Subsequently, the cells were treated with colforsin daropate at various concentrations (0, 10, 20 and 30 μM), and cultured for 96 hours. After 1, 2, and 4 days in culture, a cytotoxicity test was performed using the cells in each well and a CCK-8 kit (Dojindo, Japan).

[2] = system: TRAP activity induced by RANKL in the monocytic cell line RAW264.7; test: Osteoclast differentiation, TRAP staining and activity assay; format: cell-based, murine
Procedure: At this time, α-MEM containing 100 ng/ml RANKL (R&D systems) and 10% FBS was used as a cell suspension medium. After 24 hours, the cells were treated with colforsin daropate at various concentrations (0, 0.2, 1, 2, 10, and 20 μM). After 3 days, TRAP staining was performed using a leukocyte acid phosphatase kit (Sigma). The stained cells were first fixed in 10% formalin for 10 minutes, and then dehydrated in 95% ethanol, and dried well at room temperature. Subsequently, 100 μl of citrate buffer (50 mM, pH 4.6) containing 10 mM sodium tartrate and 5 mM p-nitrophenylphosphate was added to each well, and reacted for 20 to 30 minutes. Thereafter, the enzyme reaction mixtures were transferred into new 96-well plates, and the reaction was terminated using 100 μl of 0.1 N NaOH. Absorbance was measured at 405 nm. TRAP activity was presented as a % of control, and a significance test was performed by t-test at the same time (purmorphamine treatment p<0.01; colforsin daropate treatment p<0.001). Purmorphamine was used as a control compound.

[3] = system: ALP activity in murine osteoblastic cell, MC3T3-E1 subclone 4; test: Alkaline phosphatase (ALP) activity of osteoblast, MC3T3-E1; format: cell-based; design: osteoblast differentiation-related ALP activity compared with the control compound purmorphamine: dose or concentration left out as unconfirmed
Procedure: (§1) In order to examine the effect of colforsin daropate on the activity of ALP, of which activity and expression are known to be increased at an early stage of osteoblast differentiation, the following experiment was performed. A murine osteoblastic cell, MC3T3-E1 subclone 4 (ATCC CRL-2593) was treated with colforsin daropate. After 8 days, cells were lysed using a lysis buffer (10 mM Tris-HCl, pH 7.5, 0.5 mM MgCl2, 0.1% Triton X-100) at room temperature for 30 minutes, and centrifuged at 12,000 rpm and 4° C. for 20 minutes. Next, […] in the obtained supernatant using a BCA kit (Bio-Rad), and its activity was measured using a LabAssay ALP kit (Wako, Japan). In this regard, the measured activity was presented as a % of the control, and a significance test was performed by t-test (colforsin daropate treatment, p<0.05; purmorphamine treatment as control, p<0.05). The same experiment was performed using multipotent C3H10T1/2 cells (cells can differentiate toward various lineages, including osteocytes).

[4] = system: ALP activity in multipotent C3H10T1/2 cells; test: Alkaline phosphatase (ALP) activity, C3H10T1/2; format: cell-based; conditions: FIG. 3B
Procedure: as §1, with “A” for “In order to examine the effect of colforsin daropate on the activity of ALP, of which activity and expression are known to be increased at an early stage of osteoblast differentiation, the following experiment was performed. A”

[5] = system: murine osteoblastic cell, MC3T3-E1 subclone 4; test: Cell proliferation of osteoblastic cells; format: cell-based
[6] = system: ovariectomy-induced bone loss; test: Bone density-improving effect in ovariectomy-induced osteoporosis model (micro-CT); format: in vivo, DDY female mice; conditions: ovariectomized mice, p.o. 5 mg/kg or 10 mg/kg once a day for 4 weeks, FIG. 4, monohydrochloride
Procedure: Thus, most studies are performed in animals. Ovariectomized mice are frequently used as a model for postmenopausal osteoporosis. Ovariectomized mice and early postmenopausal women share many similar characteristics, and thus ovariectomized mice have been commonly used in the studies of osteoporosis therapeutic agents. The present inventors performed ovariectomies on 5-week-old DDY female mice. The mice were anesthetized by intraperitoneal injection of 25 mg/kg of pentobarbital sodium (JW Pharmaceutical Corp). The abdomen of each mouse was shaved, and the surgical site was cleansed with antiseptics to perform ovariectomy. A 1.5 cm abdominal incision was made through the skin, muscle, and peritoneum to expose the ovary. The ovary was dissected out, and the peritoneum, muscle, and skin were sutured. As a control group, a sham ovariectomy was performed to the peritoneum identically, but the ovaries remained intact. The mouse models having ovariectomy-induced bone loss were orally administered (p.o.) with the colforsin compound at the concentrations of 5 mg/kg or 10 mg/kg once a day for 4 weeks. The effects were examined using a high resolution in-vivo micro-CT system (explore Locus scanner, GE Health Care, USA) to analyze the bone density.

Q: Which cytotoxicity [1] does the source give for `C=C[C@@]1(C)CC(=O)[C@]2(O)[C@@]3(C)[C@@H](O)CCC(C)(C)[C@@H]3[C@H](OC(=O)CCN(C)C)[C@H](OC(C)=O)[C@@]2(C)O1.Cl` [colforsin daropate] here?
A: Its cytotoxicity is “no cytotoxicity; also recorded: without cytotoxicity”.

Q: And the “TRAP activity induced by RANKL” value ([2]; RAW264.7, 100 ng/ml RANKL, 0.2-20 μM, 3 days, % of control, FIG. 2)?
A: Its value is “inhibited TRAP activity induced by RANKL in the monocytic cell line RAW264.7 in a concentration-dependent manner”.

Q: What about the osteoclast differentiation ([2]; RAW264.7 with RANKL, FIGS. 1 and 2) of the same molecule?
A: The osteoclast differentiation was “efficacy of inhibiting osteoclast differentiation”.

Q: And the ALP activity ([3]; MC3T3-E1 subclone 4, after 8 days, % of control, FIG. 3A)?
A: Its ALP activity is “remarkably increased”.

Q: What about the “osteoblast differentiation-related ALP activity compared with the control compound purmorphamine” value ([3]; versus purmorphamine) of the same molecule?
A: Its value is “more increased”.

Q: What about the ALP activity [4] of the same molecule?
A: The ALP activity was “also remarkably increased”.

Q: What about the cell proliferation [5] of the same molecule?
A: Its cell proliferation is “did not affect cell proliferation”.

Q: What about the “bone density / ovariectomy-induced bone loss” value [6] of the same molecule?
A: Its value is “remarkably increased; also recorded: remarkably improved”.
